Experimental data from PMC8571031, “Stimulation of Ca^2+‐ATPase Transport Activity by a Small‐Molecule Drug” (Chemmedchem, 2021).

Target: T1, sarco(endo)plasmic reticulum Ca2+-ATPase (SERCA1a isoform) (Oryctolagus cuniculus, UniProt P04191)
T1 construct: gene ATP2A1; purified SERCA1a from rabbit skeletal muscle SR in reconstituted proteoliposomes; native SR vesicles for the EC50
Assay: SSM electrical measurement of ATP-induced charge translocation (activation); EC50 on native SR vesicles, direct action confirmed with purified SERCA1a proteoliposomes
Assay type: biochemical

T1 sequence (P04191 1-993): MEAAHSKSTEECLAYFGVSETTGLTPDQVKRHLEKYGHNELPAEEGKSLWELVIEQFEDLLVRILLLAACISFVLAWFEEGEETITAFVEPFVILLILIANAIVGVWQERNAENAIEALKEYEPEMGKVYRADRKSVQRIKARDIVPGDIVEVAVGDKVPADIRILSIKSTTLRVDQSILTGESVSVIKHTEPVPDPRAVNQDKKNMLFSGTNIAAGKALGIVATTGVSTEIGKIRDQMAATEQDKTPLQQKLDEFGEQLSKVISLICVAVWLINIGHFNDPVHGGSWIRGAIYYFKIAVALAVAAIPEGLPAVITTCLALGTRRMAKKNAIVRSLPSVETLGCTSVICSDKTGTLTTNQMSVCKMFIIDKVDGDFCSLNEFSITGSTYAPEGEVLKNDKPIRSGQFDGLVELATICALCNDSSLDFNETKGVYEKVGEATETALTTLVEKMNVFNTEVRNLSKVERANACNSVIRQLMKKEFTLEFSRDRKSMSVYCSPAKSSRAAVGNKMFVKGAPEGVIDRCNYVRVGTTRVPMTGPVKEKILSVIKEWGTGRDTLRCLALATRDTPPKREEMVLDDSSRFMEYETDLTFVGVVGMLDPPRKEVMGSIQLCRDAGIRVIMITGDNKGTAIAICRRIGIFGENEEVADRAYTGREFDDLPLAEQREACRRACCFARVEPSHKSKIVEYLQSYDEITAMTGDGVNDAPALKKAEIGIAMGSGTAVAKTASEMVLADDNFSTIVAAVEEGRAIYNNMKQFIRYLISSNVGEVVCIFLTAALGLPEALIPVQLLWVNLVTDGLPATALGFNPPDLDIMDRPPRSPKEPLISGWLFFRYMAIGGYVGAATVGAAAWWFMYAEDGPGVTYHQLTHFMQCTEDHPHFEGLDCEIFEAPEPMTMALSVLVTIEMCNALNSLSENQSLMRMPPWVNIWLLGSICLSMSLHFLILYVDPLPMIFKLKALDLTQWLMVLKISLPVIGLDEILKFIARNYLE

EC50: 6 ± 0.3 µM
SMILES: Cc1ccc2cccc(NC(=O)c3ccc(OC(C)C)cc3)c2n1 [CDN1163]
